Results as given in patent US5380710A, “Pharmaceutical compositions containing ACTH (1-24) for the therapy of shock conditions and respiratory and cardiocirculatory insufficiences” (priority 1985, dated 1995).
Structures can show the parent of a compound that is named as a salt.

Tested on: severe hypotension induced by bleeding (hypovolemic shock), intact rats
Test: Hypovolemic shock by bleeding in intact rats: mean arterial pressure and survival
Format: in vivo, Wistar rats
Method: Intact and adrenalectomized female Wistar rats (Nossan, Correzzano, Milano, Italy) weighing 250 to 300 g, and intact male Beagle dogs (S. Morini, S. Polo d'Enza, Reggio Emilia, Italy) weighing 10 to 12 kg were used. Following anesthetization and heparinization a common carotid artery and an iliac vein were cannulated in rats, while in dogs a femoral artery and vein were used. Arterial blood pressure was recorded by means of a pressure transducer (Statham P23 Db) connected to a polygraph (Battaglia-Rangoni, Bologna, Italy). In some rats, trachea was cannulated and respiration was recorded by means of a transducer (Statham 10272) connected to the same polygraph. Hypovolemic shock was produced by intermittently withdrawing blood from the venous catheter until mean arterial pressure fell to 16-30 mm Hg. In rats, the volume of blood removed was 2-2.5 ml per 100 g of body weight and approximated to, or even exceeded, 50% of the estimated total blood volume; in dogs, the volume of blood removed was 50-60 ml per kg of body weight. Following bleeding and mean blood pressure stabilization in the range of 16-30 mm Hg, animals were given intravenous bolus of either ACTH (1-24) or naloxone.HCl.

## C=CCN1CC[C@]23c4c5ccc(O)c4O[C@H]2C(=O)CC[C@@]3(O)[C@H]1C5 [Naloxone.HCl, naloxone.HCl]
Intact rats (5), Naloxone.HCl 1 μg/kg i.v. group, baseline before treatment, m ± S.E.
  Mean arterial pressure before bleeding: 64,60 ± 4,70 mm Hg
Intact rats (5), Naloxone.HCl 1 μg/kg i.v. group, before treatment, m ± S.E.
  Mean arterial pressure after bleeding: 22,00 ± 3,15 mm Hg
Intact rats (5), bled, 1 μg/kg i.v.
  No. of deaths 60 min. after treatment: 0
Intact rats (5), bled, 1 μg/kg i.v., m ± S.E.
  Mean arterial pressure 15-30 min. after treatment: 58,20 ± 6,12 mm Hg
rats, bled, 1 mg/kg i.v., within 30 minutes
  Effect on blood pressure after bleeding: completely restored blood pressure
